The subject of test [1] is E. coli DH5α-E containing multiply mutated ampC. In words: MIC of population of E. coli host cells containing multiply mutated (DNA-shuffled) ampC. Format: cell-based. The note with it: Escherichia coli; lowest drug concentration that completely inhibited growth; overnight at 37° C., MH-I broth, 48-well plates, shuffled ampC library in DH5α-E. The protocol:
E. coli host cells prepared according to Example 4 were diluted into 100 ml MuellerHinton-IPTG (MH-T) broth. Duplicate samples of 10^0, 10^1, and 10^2 dilutions were spread onto L(tet) plates to estimate total transformants, and duplicate 10^0 and 10^1 samples were spread onto MH-I(ampicillin) plates to estimate the number of Amp^R transformants. 10 mg ampicillin was added to each culture using 1 ml of a 10 mg/ml ampicillin solution. The culture was allowed to stand overnight at 37° C. without shaking.
Next, the minimum inhibitory concentration of a number of drug was determined. An estimate of viable cells was calculated by assuming that an A600 of 1.0 is equivalent to 1.9×10^8 per ml for DH5α-E cells. A sample of the overnight culture was diluted into 70 ml of MH-I so that the number of cells per ml 10^5 per ml. The resulting suspension was used to determine MIC in 48-well microtiter plates.
(§1) Serial dilutions were prepared by first determining the volume of drug solution to be added to the first well in each row to achieve the desired concentration of drug in a total volume of 1 ml. The MIC was determined for the following drugs: ampicillin, pipericillin, temocillin, cephalothin, cefuroxime, cefotaxime, ceftazidime, cefepime, imipenem, meropenem, and aztreonam. To the first well in each row 1 ml of the diluted cell suspension was added, and to all remaining wells per row 0.5 ml of the diluted cell suspension was added. For each row, the predetermined volume of a drug solution was added to the first well per row, mixed well, and then 0.5 ml of the mixed solution was transferred to the next well, and so on until the serial dilutions were completed. From the last well in each row, 0.5 ml was removed so that all well contained 0.5 ml of the drug-containing culture. Plates were sealed with BreatheEasy film (Diversified Biotech, Boston, Mass.) and maintained overnight at 37° C. with shaking. […] The MICs, in μg/ml, for each of the above-identified drugs was as follows: ampicillin, >1024; pipericillin, >1024; temocillin, 32: cephalothin, 1024; cefuroxime, 512; cefotaxime, 8; ceftazidime, 64; cefepime, 1; imipenem, 0.25; meropenem, 0.03125; and aztreonam, 16.

Test [2] deals with E. coli JM109 carrying the plasmid vector pACSE without an ampC gene. Put plainly: MIC test, plasmid vector pACSE without an ampC gene. It is filed as cell-based. The following applies: pACSE (vector, no ampC). The protocol: (§2) Basically, a MIC determination is carried out by preparing serial dilutions of drugs in a micro-well plate and measuring host cell growth within those wells. The MIC for a particular set of host cells containing a mutant resistance gene is determined by examining the wells to locate the lowest concentration of drug which inhibited cell growth. This is capable of discriminating generally between those host cells containing mutant resistance genes conferring different degrees of resistance against the particular drug.
as §1
Plasmids were prepared from those isolates and were transformed into E. coli strain JM109. MICs conferred by each of those plasmids was determined as in Example 5.
(§3) MICs of three of the plasmids containing the wildtype AmpC gene into which the above mutations have been introduced have been determined, as shown in Table 2 below.

Test [3] relates to E. coli JM109 carrying pAmpC0 (wildtype E. coli K12 ampC gene). Put plainly: MIC test, plasmid pAmpC0 (wildtype ampC gene). Format: cell-based. The note with it: for MIC: pAmpC0 (wildtype ampC); for resistance conferred by plasmid pAmpC0: wildtype ampC gene, Table 1 boxed cells. The protocol: as §2
All experiments utilizing ampicillin resistance will be directed toward the cloned and regulated ampC gene (or mutant ampC gene) in such a way that the regulation, i.e., the amount of enzyme produced per cell, will be held constant throughout the experiments and all of the “improvement” in resistance will come from improvement in β-lactamase activity.
as §1, with “16. […]” for “16.”

The test system of test [4] is host cells carrying pAmpC0-305 (AmpC T121 to S). Put plainly: MIC test, single-mutation plasmid pAmpC0-305. Format: cell-based, E. coli. The following applies: for MIC: pAmpC0-305, A663 to G, T121 to S. The protocol: as §2, §1
(§4) To determine the phenotypic effects of each of the amino acid substitutions, the A907C, A587G, A663G, T869G, and A884G mutations are being individually introduced into pAmpC0 by site-directed mutagenesis. It is expected that the A907C mutation will result in MICs that are identical to pAmpC13A. The A587G, A663G, and As84G mutations will also be introduced individually into AmpC13 to determine whether the combination of any of those mutations with A907C will result in increased resistance levels.
as §3

Test [5] deals with host cells carrying PAmpC0-307 (AmpC L290 to R). Put plainly: MIC test, single-mutation plasmid PAmpC0-307. It is filed as cell-based, E. coli. The following applies: for MIC: PAmpC0-307, T869 to G, L290 to R. The protocol:
as §2, §1, §4, §3

The test system of test [6] is host cells carrying PAmpC0-308 (AmpC N295 to S). Put plainly: MIC test, single-mutation plasmid PAmpC0-308. The note with it: A644 to G. Format: cell-based, E. coli.
In test [7] the test system is E. coli carrying pAmpC13A (mutant ampC, S303R). Put plainly: MIC test, mutant plasmid pAmpC13A. It is filed as cell-based. As for the experimental part: (§5) Serial dilutions were prepared by first determining the volume of drug solution to be added to the first well in each row to achieve the desired concentration of drug in a total volume of 1 ml. The MIC was determined for the following drugs: ampicillin, pipericillin, temocillin, cephalothin, cefuroxime, cefotaxime, ceftazidime, cefepime, imipenem, meropenem, and aztreonam. To the first well in each row 1 ml of the diluted cell suspension was added, and to all remaining wells per row 0.5 ml of the diluted cell suspension was added. For each row, the predetermined volume of a drug solution was added to the first well per row, mixed well, and then 0.5 ml of the mixed solution was transferred to the next well, and so on until the serial dilutions were completed. From the last well in each row, 0.5 ml was removed so that all well contained 0.5 ml of the drug-containing culture. Plates were sealed with BreatheEasy film (Diversified Biotech, Boston, Mass.) and maintained overnight at 37° C. with shaking.
(§6) Plasmids were prepared from those isolates and were transformed into E. coli strain JM109.

The subject of test [8] is E. coli carrying pAmpC21B (mutant ampC). In words: MIC test, mutant plasmid pAmpC21B. It is filed as cell-based. The note with it: after two cycles of mutagenesis and selection. As for the experimental part:
as §5, §6

In brackets after ≈: the same amount, converted by molar mass.

Consider `CC1(C)S[C@@H]2[C@H](NC(=O)[C@H](N)c3ccccc3)C(=O)N2[C@H]1C(=O)O` [Ampicillin, ampicillin], for which the MIC in test [1] is over 1020 µg/mL; in test [2], 2 µg/mL (≈ 5.72 µM); in test [3] it was 128 µg/mL (≈ 366 µM); in test [4], 128 µg/mL; in test [5] it was 128 µg/mL; in test [6] it was 64 µg/mL (≈ 183 µM). Besides, in test [3], the “resistance conferred by plasmid pAmpC0” value is given as “confers resistance”. In test [7], the “clinical resistance conferred by pAmpC13A” value is “clinical resistance”. Also, the “improved resistance conferred by pAmpC13A” value in test [7] is reported as “improved resistance”. In test [8], the “clinical resistance conferred by pAmpC21B” value is on record as “clinical resistance”.
Turning to `C[C@H]1[C@H](NC(=O)/C(=N\OC(C)(C)C(=O)O)c2csc(N)n2)C(=O)N1S(=O)(=O)O` [Aztreonam, aztreonam], the MIC in test [1] is 16 µg/mL; in test [2], 0.5 µg/mL (≈ 1.15 µM); in test [3], 4 µg/mL (≈ 9.19 µM); in test [4], 4 µg/mL; in test [5] it was 4 µg/mL; in test [6], 4 µg/mL (≈ 9.19 µM). Also, in test [3], the “resistance conferred by plasmid pAmpC0” value was “not”. Also, the “improved resistance conferred by pAmpC13A” value in test [7] was “improved resistance”.
In the case of `CO/N=C(\C(=O)N[C@@H]1C(=O)N2C(C(=O)O)=C(COC(C)=O)CS[C@H]12)c1csc(N)n1` [Cefotaxime, cefotaxime], the MIC was 8 µg/mL in test [1]; 0.0625 µg/mL (≈ 0.137 µM) in test [2]; 1 µg/mL (≈ 2.2 µM) in test [3]; 1 µg/mL in test [4]; 0.5 µg/mL in test [5]; 0.5 µg/mL (≈ 1.1 µM) in test [6]. Moreover, the “resistance conferred by plasmid pAmpC0” value in test [3] is on record as “not”. Also, the “improved resistance conferred by pAmpC13A” value in test [7] is listed as “improved resistance”.
`CC(C)(O/N=C(\C(=O)N[C@@H]1C(=O)N2C(C(=O)[O-])=C(C[n+]3ccccc3)CS[C@H]12)c1csc(N)n1)C(=O)O` [Ceftazidime, ceftazidime]: the MIC in test [1] came out at 64 µg/mL; in test [2], 0.5 µg/mL (≈ 0.915 µM); in test [3], 2 µg/mL (≈ 3.66 µM); in test [4], 2 µg/mL; in test [5], 1 µg/mL; in test [6] it was 2 µg/mL (≈ 3.66 µM). Besides, in test [3], the “resistance conferred by plasmid pAmpC0” value is given as “not”. Further, the “clinical resistance conferred by pAmpC13A” value in test [7] is on record as “clinical resistance”. In test [7], the “improved resistance conferred by pAmpC13A” value is “improved resistance”. Besides, in test [8], the “clinical resistance conferred by pAmpC21B” value is listed as “clinical resistance”.
Consider `CO/N=C(\C(=O)N[C@@H]1C(=O)N2C(C(=O)O)=C(COC(N)=O)CS[C@H]12)c1ccco1` [Cefuroxime, cefuroxime], for which the MIC in test [1] is 512 µg/mL; in test [2], 16 µg/mL (≈ 37.7 µM); in test [3], 64 µg/mL (≈ 151 µM); in test [4] it was 32 µg/mL; in test [5] it was 32 µg/mL; in test [6] it was 32 µg/mL (≈ 75.4 µM). Further, the “resistance conferred by plasmid pAmpC0” value in test [3] was “confers resistance”. In addition, the “clinical resistance conferred by pAmpC13A” value in test [7] is listed as “clinical resistance”. Further, the “clinical resistance conferred by pAmpC21B” value in test [8] is “clinical resistance”.
For `CC(=O)OCC1=C(C(=O)O)N2C(=O)[C@@H](NC(=O)Cc3cccs3)[C@H]2SC1` [Cephalothin, cephalothin], the MIC in test [1] was found to be 1020 µg/mL; in test [2] it was 16 µg/mL (≈ 40.4 µM); in test [3] it was 1020 µg/mL (≈ 2580 µM); in test [4] it was 512 µg/mL; in test [5], 512 µg/mL; in test [6], 512 µg/mL (≈ 1290 µM). For the same compound, the “resistance conferred by plasmid pAmpC0” value in test [3] was “confers resistance”. For the same compound, the “clinical resistance conferred by pAmpC13A” value in test [7] is on record as “clinical resistance”. For the same compound, the “clinical resistance conferred by pAmpC21B” value in test [8] is listed as “clinical resistance”.
Turning to `C[C@@H](O)[C@H]1C(=O)N2C(C(=O)O)=C(SCCN=CN)C[C@H]12` [Imipenem, imipenem], the MIC in test [1] is 0.25 µg/mL; in test [2] it was 0.25 µg/mL (≈ 0.835 µM); in test [3], 0.25 µg/mL (≈ 0.835 µM); in test [4] it was 0.125 µg/mL; in test [5], 0.125 µg/mL; in test [6], 0.125 µg/mL (≈ 0.418 µM).
With `C[C@@H](O)[C@H]1C(=O)N2C(C(=O)O)=C(S[C@@H]3CN[C@H](C(=O)N(C)C)C3)[C@H](C)[C@H]12` [Meropenem, meropenem], the MIC is 0.0312 µg/mL in test [1]; 0.00195 µg/mL (≈ 0.00509 µM) in test [2]; 0.0156 µg/mL in test [4]; 0.0312 µg/mL in test [5]; 0.0156 µg/mL (≈ 0.0407 µM) in test [6]. The “resistance conferred by plasmid pAmpC0” value in test [3] is recorded as “not”. In addition, in test [4], the “change in resistance by A663G (T121S) mutation vs wildtype pAmpC0” value was “significantly increase resistance”. In addition, the “change in resistance by T869G (L290R) mutation vs wildtype pAmpC0” value in test [5] is recorded as “significantly increase resistance”. The “improved resistance conferred by pAmpC13A” value in test [7] is “improved resistance”.
Turning to `CO[C@@]1(NC(=O)C(C(=O)O)c2ccsc2)C(=O)N2[C@@H](C(=O)O)C(C)(C)S[C@@H]21` (stereo partly drawn) [Temocillin, temocillin], the MIC in test [1] was 32 µg/mL; in test [2] it was 16 µg/mL (≈ 38.6 µM); in test [3] it was 16 µg/mL (≈ 38.6 µM); in test [4], 16 µg/mL; in test [5], 8 µg/mL; in test [6], 8 µg/mL (≈ 19.3 µM). The “resistance conferred by plasmid pAmpC0” value in test [3] is listed as “not”. Moreover, the “clinical resistance conferred by pAmpC13A” value in test [7] is “clinical resistance”. For the same compound, the “improved resistance conferred by pAmpC13A” value in test [7] was “improved resistance”.

Values taken from US6720142B1, “Method of determining evolutionary potential of mutant resistance genes and use thereof to screen for drug efficacy” (priority 1999, dated 2004).
